The target of one series is T1, human TRPA1 (hTRPA1) (Homo sapiens, UniProt O75762).
T1 construct: expressed in transfected cells
The series is described as follows: Inhibition of human TRPA1, whole-cell patch clamp. The series is classed as cell-based. As to conditions: antagonist effect, whole cell patch configuration; read-out: hTRPA1. The procedure: Data for TRPA1 inhibition was obtained by this method for the indicated compounds of Formula (I), with the relevant data included in Table 14 below. All currents were recorded in whole-cell configuration using EPC-9 and EPC-10 amplifiers and Patchmaster software (HEKA). […] The standard pipette solution consisted of 140 mM CsAsp, 10 mM EGTA, 10 mM HEPES, […], 1.91 mM CaCl2, and up to 0.3 mM Na2GTP, with pH adjusted to 7.2 with CsOH. In addition, a solution containing 145 mM CsCl, 10 mM HEPES, 10 mM EGTA, and up to 0.3 mM Na2GTP and 1 mM MgCl2 (pH 7.2 adjusted with CsOH) can be used. The standard bath solution contained 150 mM NaCl, 10 mM HEPES, 10 mM glucose, 4.5 mM KCl, 1 mM EGTA, 3 mM MgCl2, with pH adjusted to 7.4 with NaOH. In some instances, 2 mM CaCl2 was added in place of EGTA and the concentration of MgCl2 was reduced to 1 mM.
Data were collected either by continuous recordings at −60 mV or by applying voltage ramps from a holding potential of 0 mV every 4 s. Continuous recordings were collected at 400 Hz and digitally filtered off-line at 10 Hz for presentation. Voltage ramps were applied from −100 mV to 100 mV over the course of 400 ms, and data were collected at 10 kHz and filtered at […]. Inward and outward currents were analyzed from the ramps at −80 and 80 mV, respectively. Liquid junction potential correction was not used.
Solutions were switched using a gravity-fed continuous focal perfusion system. To achieve rapid temperature changes, two temperature control, and perfusion systems were employed simultaneously. For temperatures greater than or equal to 22° C., a Warner Instruments bipolar temperature controller (TC-344B) and inline heater (SHM-8) were used. […] Temperatures were confirmed using a thermistor (Warner Instruments, TA-29), with temperatures at the recorded cell estimated to be within +/−2° C. of those reported.
The antagonist effects of compounds of Formula (I) against human TRPA1 (“hTRPA1”) in a whole cell patch configuration were evaluated using the in vitro assay protocol described above.
On the technique in general: Patch clamp records ionic current or voltage across a cell membrane.

Series [1] can be described thus: Metabolic stability in liver microsomes. The note with it: 1 μM test compound; for half-life at 1 μM: human, liver microsomes, 37° C. The series is classed as in vitro ADME, human. The protocol: (§1) Metabolic stability of the compounds of Formula (I) was determined by standard liver microsome assays. Briefly, metabolic stability was tested by adding the compound to be tested dissolved in DMSO to human, dog, or rat liver microsomes. Assays were run with a starting concentration of 1 μM test compound. The reaction was initiated by addition of nicotinamide adenine dinucleotide phosphate[…] (NADPH) regeneration components at 37° C., at which time an aliquot was immediately quenched in an ice-cold acetonitrile/methanol/water solution. Reaction mixture was incubated at 37° C. on a shaker, and additional aliquots were taken at 7, 15, 30 and 60 minutes. Following quench and centrifugation, samples were analyzed on HPLC/MS/MS.
A general note: Microsomes from liver hold many membrane-bound enzymes, among them those of drug oxidation.

Series [2] can be described thus: Metabolic stability in liver microsomes. As to conditions: rat liver microsomes. The series is classed as in vitro ADME. The protocol:
as §1

Series [3] can be described thus: Kinetic solubility in buffered solutions. As to conditions: aqueous buffer, kinetic from dmso stock, 24 hours ambient. The series is classed as physicochemical. The protocol: The solubilities of the compounds of Formula (I) were tested using the procedure outlined in Kerns, E. H., J Pharm Sci (2001) 90:1838-1858, incorporated herein by reference and described below. Data for solubility was obtained by this method for compounds of Formula (I) and included in Table 3. The chromatographic data was performed by HPLC using an Xbridge Shield RP18 column with the following column dimensions: 4.6×30 mm, 3.5 μm. The mobile phase consisted of deionized water (MPA) with trifluoroacetic acid added in at 0.1% (v/v) (MPC) and HPLC-grade acetonitrile (MPB). The mobile phase flow rate was 2.5 mL/min with the column and sampling operating at ambient temperature. UV detection was set to 280 nm.
Samples for analysis of the compounds of Formula (I) were prepared at a % v/v=1/19 (i.e., 10 μL of the stock solution into 190 μL of buffer) by spiking stock solutions of the compounds of Formula (I) into buffered solutions. Three buffered solution systems were prepared: pH 4.0 prepared from 50 mM sodium acetate in a 5% dextrose in water solution, pH 7.4 prepared from 75 mM sodium phosphate in a 1:1 ratio of sterilized water for injection to a 5% dextrose in water solution, and pH 9.0 prepared from 50 mM sodium bicarbonate in a 1:2 ratio of sterilized water for injection to a 5% dextrose in water solution. The samples were incubated on a microplate shaker at 300 rpm for 24 hours at ambient temperature. Following incubation, the samples were centrifuged for five minutes at 13 k rpm at ambient temperature. The resulting supernantant was extracted for HPLC analysis.

Where [4] appears, read: sodium acetate buffer, pH 4.0, 50 mM sodium acetate, read-out: pH 4.0 solubility.
The mark [5] stands for this setting: sodium bicarbonate buffer, pH 9.0, 50 mM sodium bicarbonate, read-out: pH 9.0 solubility.
Where [6] appears, read: sodium phosphate buffer, pH 7.4, 75 mM sodium phosphate, read-out: pH 7.4 solubility.

Broadly, the half-life is how long it takes for the measured level to halve.

Values after ≈ are worked out from the molar mass of the structure shown. Like-named read-outs stand apart in the source and are kept apart here. A value given as a limit tells only on which side of the number the result lay.

T1 sequence (O75762 whole entry): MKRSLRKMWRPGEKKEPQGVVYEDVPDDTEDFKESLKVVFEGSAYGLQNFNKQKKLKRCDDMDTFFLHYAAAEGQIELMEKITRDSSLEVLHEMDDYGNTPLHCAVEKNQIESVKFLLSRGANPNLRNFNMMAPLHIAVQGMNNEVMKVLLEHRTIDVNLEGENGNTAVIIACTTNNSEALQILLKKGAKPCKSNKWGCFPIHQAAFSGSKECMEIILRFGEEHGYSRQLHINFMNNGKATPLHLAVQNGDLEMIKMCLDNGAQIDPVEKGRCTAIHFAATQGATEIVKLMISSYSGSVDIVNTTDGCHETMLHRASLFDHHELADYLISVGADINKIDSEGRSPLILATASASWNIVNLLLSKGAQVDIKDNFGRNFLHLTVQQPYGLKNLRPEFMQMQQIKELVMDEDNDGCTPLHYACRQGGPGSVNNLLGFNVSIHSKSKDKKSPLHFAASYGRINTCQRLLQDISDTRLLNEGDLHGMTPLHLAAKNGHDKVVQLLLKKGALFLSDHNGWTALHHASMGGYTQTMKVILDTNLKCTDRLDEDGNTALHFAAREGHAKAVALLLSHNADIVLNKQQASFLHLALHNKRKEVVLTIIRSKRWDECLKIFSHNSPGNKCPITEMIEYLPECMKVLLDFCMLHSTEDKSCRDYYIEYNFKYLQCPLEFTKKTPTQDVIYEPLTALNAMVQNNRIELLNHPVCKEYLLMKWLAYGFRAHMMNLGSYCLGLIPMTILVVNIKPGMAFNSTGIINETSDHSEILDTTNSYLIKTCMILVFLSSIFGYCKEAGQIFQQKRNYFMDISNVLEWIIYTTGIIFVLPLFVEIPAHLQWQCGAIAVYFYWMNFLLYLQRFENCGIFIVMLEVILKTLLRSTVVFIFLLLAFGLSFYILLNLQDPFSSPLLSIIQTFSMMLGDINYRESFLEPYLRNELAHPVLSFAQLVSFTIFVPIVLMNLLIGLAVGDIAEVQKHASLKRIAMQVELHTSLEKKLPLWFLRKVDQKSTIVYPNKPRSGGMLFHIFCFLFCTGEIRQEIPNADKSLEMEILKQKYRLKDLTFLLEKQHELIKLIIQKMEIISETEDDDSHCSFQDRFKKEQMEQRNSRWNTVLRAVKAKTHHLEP

Consider `C[C@H](C(=O)Nc1ccnc(-c2cnc(N3CCC[C@H]3C(F)(F)F)nc2)n1)n1cnc2c1c(=O)n(C)c(=O)n2C` [Compound 3, (R)-2-(1,3-dimethyl-2,6-dioxo-2,3-dihydro-1H-purin-7(6H)-yl)-N-(2′-((S)-2-(trifluoromethyl)pyrrolidin-1-yl)-[2,5′-bipyrimidin]-4-yl)propanamide], for which the IC50 at human TRPA1 (hTRPA1) worked out at 2290 nM.
On the same count and under the same terms, the figure for `Cn1c(=O)c2c(ncn2CC(=O)Nc2ccnc(-c3cnc(N4CC(F)(F)C4)nc3)n2)n(C)c1=O` [Compound 7, N-(2′-(3,3-difluoroazetidin-1-yl)-[2,5′-bipyrimidin]-4-yl)-2-(1,3-dimethyl-2,6-dioxo-2,3-dihydro-1H-purin-7(6H)-yl)acetamide] is 922 nM.
With `Cn1c(=O)c2c(ncn2CC(=O)Nc2ccnc(-c3cnc(N4CCC(F)(F)CC4)nc3)n2)n(C)c1=O` [Compound 8, N-(2′-(4,4-difluoropiperidin-1-yl)-[2,5′-bipyrimidin]-4-yl)-2-(1,3-dimethyl-2,6-dioxo-2,3-dihydro-1H-purin-7(6H)-yl)acetamide], on human TRPA1 (hTRPA1), the IC50 worked out at 71.9 nM. The half-life at 1 μM in series [1] was 38.4 min; in series [2] (both sexes, read-out: Half-Life Both sexes) it was 115 min.
Turning to `C[C@@H](C(=O)Nc1ccnc(-c2cnc(N3CC(F)(F)C3)nc2)n1)n1cnc2c1c(=O)n(C)c(=O)n2C` [Compound 9, (S)—N-(2′-(3,3-difluoroazetidin-1-yl)-2,5′-bipyrimidin-4-yl)-2-(1,3-dimethyl-2,6-dioxo-2,3-dihydro-1H-purin-7(6H)-yl)propanamide], the IC50 at human TRPA1 (hTRPA1) worked out at 462 nM.
Same read-out and setting: the value for `Cn1c(=O)c2c(ncn2CC(=O)Nc2ccnc(-c3cnc(N4CC5CC5C4)nc3)n2)n(C)c1=O` (centres unmarked) [Compound 10, N-(2′-(3-azabicyclo[3.1.0]hexan-3-yl)-[2,5′-bipyrimidin]-4-yl)-2-(1,3-dimethyl-2,6-dioxo-2,3-dihydro-1H-purin-7(6H)-yl)acetamide] was 93.5 nM; that for `Cn1c(=O)c2c(ncn2CC(=O)Nc2ccnc(-c3cnc(N4CCC(C(F)(F)F)C4)nc3)n2)n(C)c1=O` (centres unmarked) [Compound 11, 2-(1,3-dimethyl-2,6-dioxo-2,3-dihydro-1H-purin-7(6H)-yl)-N-(2′-(3-(trifluoromethyl)pyrrolidin-1-yl)-[2,5′ bipyrimidin]-4-yl)acetamide] was 124 nM.
Same read-out and setting: the figure for `Cn1c(=O)c2c(ncn2CC(=O)Nc2ccnc(-c3cnc(N4CC(C(F)(F)F)C4)nc3)n2)n(C)c1=O` [Compound 12, 2-(1,3-dimethyl-2,6-dioxo-1,2,3,6-tetrahydropurin-7-yl)-N-(2-(2-(3-(trifluoromethyl)azetidin-1-yl)pyrimidin-5-yl)pyrimidin-4-yl)acetamide] is 387 nM; for `C[C@@H](C(=O)Nc1ccnc(-c2cnc(N3CCC(F)(F)CC3)nc2)n1)n1cnc2c1c(=O)n(C)c(=O)n2C` [Compound 14, (S)—N-(2′(4,4-difluoropiperidin-1-yl)-2,5′-bipyrimidin-4-yl)-2-(1,3-dimethyl-2,6-dioxo-2,3-dihydro-1H-purin-7(6H)-yl)propanamide] it is 94.8 nM.
In the case of `C[C@H]1CCCCN1c1ncc(-c2nccc(NC(=O)Cn3cnc4c3c(=O)n(C)c(=O)n4C)n2)cn1` [Compound 17, (S)-2-(1,3-dimethyl-2,6-dioxo-2,3-dihydro-1H-purin-7(6H)-yl)-N-(2′-(2-methylpiperidin-1-yl)-2,5′-bipyrimidin-4-yl)acetamide], the solubility kinetic at 24 h was 11 µg/mL (≈ 22.4 µM) in series [3] (setting [4]), 9 µg/mL (≈ 18.3 µM) in series [3] (setting [5]) and 12 µg/mL (≈ 24.5 µM) in series [3] (setting [6]). In addition, on human TRPA1 (hTRPA1), the IC50 was 41.2 nM. In series [1], the “Human Liver Microsomes Hepatic Clearance” value came to 16 mL/min/kg. Moreover, the half-life at 1 μM in series [1] worked out at 8 min. In series [2], the “Hepatic Clearance” value is listed as 22 mL/min/kg.
`C[C@H](C(=O)Nc1ccnc(-c2cnc(N3CCC[C@@H]3C)nc2)n1)n1cnc2c1c(=O)n(C)c(=O)n2C` [Compound 22, (R)-2-(1,3-dimethyl-2,6-dioxo-2,3-dihydro-1H-purin-7(6H)-yl)-N-(2′-((S)-2-methylpyrrolidin-1-yl)-[2,5′-bipyrimidin]-4-yl)propanamide]: the solubility kinetic at 24 h in series [3] (setting [4]) stood at 50 µg/mL (≈ 102 µM); in series [3] (setting [5]), 70 µg/mL (≈ 143 µM); in series [3] (setting [6]) it was 89 µg/mL (≈ 181 µM). For the same compound, on human TRPA1 (hTRPA1), the IC50 is above 3200 nM. For the same compound, in series [1], the “Human Liver Microsomes Hepatic Clearance” value came to 12 mL/min/kg. The same compound displayed a half-life at 1 μM in series [1] of 26 min.
`CC(C(=O)Nc1ccnc(-c2cnc(N3CCCC[C@@H]3C)nc2)n1)n1cnc2c1c(=O)n(C)c(=O)n2C` (stereo partly drawn) [Compound 23, 2-(1,3-dimethyl-2,6-dioxo-2,3-dihydro-1H-purin-7(6H)-yl)-N-(2′-((S)-2-methylpiperidin-1-yl)-2,5′-bipyrimidin-4-yl)propanamide]: the solubility kinetic at 24 h in series [3] (setting [4]) came out at 20 µg/mL (≈ 39.6 µM); in series [3] (setting [5]) it was 14 µg/mL (≈ 27.7 µM); in series [3] (setting [6]) it was 31 µg/mL (≈ 61.4 µM). Besides, at human TRPA1 (hTRPA1), the IC50 is 60.7 nM. Also, the “Human Liver Microsomes Hepatic Clearance” value in series [1] came out at 18 mL/min/kg. In addition, the half-life at 1 μM in series [1] worked out at 4 min.
As for `C[C@H]1CCCN1c1ncc(-c2nccc(NC(=O)Cn3cnc4c3c(=O)[nH]c(=O)n4C)n2)cn1` [Compound 24, (S)-2-(3-methyl-2,6-dioxo-2,3-dihydro-1H-purin-7(6H)-yl)-N-(2′-(2-methylpyrrolidin-1-yl)-[2,5′-bipyrimidin]-4-yl)acetamide], the IC50 at human TRPA1 (hTRPA1) was found to be 436 nM.
With `[2H]C([2H])([2H])n1c(=O)n(C)c(=O)c2c1ncn2CC(=O)Nc1ccnc(-c2cnc(N3CCC[C@@H]3C)nc2)n1` [Compound 25, N-{2-[2-((2S)-2-methylpyrrolidinyl)pyrimidin-5-yl]pyrimidin-4-yl}-2-(1-methyl-3-methyl-d3-2,6-dioxo(1,3,7-trihydropurin-7-yl))acetamide], the solubility kinetic at 24 h stood at 45 µg/mL (≈ 93.8 µM) in series [3] (setting [4]), 11 µg/mL (≈ 22.9 µM) in series [3] (setting [5]) and 29 µg/mL (≈ 60.5 µM) in series [3] (setting [6]). Moreover, at human TRPA1 (hTRPA1), the IC50 was determined as 107 nM. The “Human Liver Microsomes Hepatic Clearance” value in series [1] turned out to be 8 mL/min/kg. Also, in series [1], the half-life at 1 μM was found to be 43 min.
Regarding `Cn1c(=O)c2c(ncn2CC(=O)Nc2ccnc(-c3cnc(N4CCC[C@H]4C(F)(F)F)nc3)n2)n(C)c1=O` [Compound 27, (S)-2-(1,3-dimethyl-2,6-dioxo-2,3-dihydro-1H-purin-7(6H)-yl)-N-(2′-(2-(trifluoromethyl)pyrrolidin-1-yl)-[2,5′-bipyrimidin]-4-yl)acetamide], the IC50 at human TRPA1 (hTRPA1) amounted to 255 nM.
Same read-out and setting: the figure for `C[C@H](C(=O)Nc1ccnc(-c2cnc(N3CCC[C@@H]3C(F)(F)F)nc2)n1)n1cnc2c1c(=O)n(C)c(=O)n2C` [Compound 28] is 65.9 nM.
